Measurements published in patent US9149465B2, “Isoxazolines as inhibitors of fatty acid amide hydrolase” (Infinity Pharmaceuticals, Inc., priority 2009, dated 2015).

The compounds below were run against T1, human FAAH (Homo sapiens, UniProt O00519) (assay: Inhibition of human FAAH (AMC arachidonoyl amide fluorescence assay)). Settings: inhibitor preincubated 30 minutes at room temperature; 20 μM AMC arachidonoyl amide; 4 hours; read-out: Activity (Ki, inhibitors of human FAAH).
T1 construct: host or cells: COS-7 cells, transient transfection; 13,000 g membrane fraction solubilised in 1% Triton X-100
T1 sequence (O00519 1-579): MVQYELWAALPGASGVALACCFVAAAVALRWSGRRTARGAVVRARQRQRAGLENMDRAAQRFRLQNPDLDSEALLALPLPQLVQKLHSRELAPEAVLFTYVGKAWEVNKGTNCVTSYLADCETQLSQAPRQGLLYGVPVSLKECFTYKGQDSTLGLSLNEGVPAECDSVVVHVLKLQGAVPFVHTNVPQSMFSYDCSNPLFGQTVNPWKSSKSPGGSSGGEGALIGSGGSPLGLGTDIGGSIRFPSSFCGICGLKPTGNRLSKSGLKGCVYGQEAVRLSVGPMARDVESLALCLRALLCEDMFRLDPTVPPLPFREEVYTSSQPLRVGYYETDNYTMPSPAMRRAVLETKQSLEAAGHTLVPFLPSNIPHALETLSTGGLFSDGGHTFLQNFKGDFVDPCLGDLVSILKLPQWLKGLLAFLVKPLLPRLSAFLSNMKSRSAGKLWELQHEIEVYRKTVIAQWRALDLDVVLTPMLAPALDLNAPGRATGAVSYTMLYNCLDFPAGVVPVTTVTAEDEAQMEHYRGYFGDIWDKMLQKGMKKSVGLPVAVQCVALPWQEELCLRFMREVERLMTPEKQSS
Type: biochemical
Protocol: Human FAAH Preparation: COS-7 cells were split the day before, 1:5 into 150 mm x […] cell culture dishes (Corning Inc., Cat. No. 430599). Transient transfection took place at 30-40% confluency according to FuGENE 6 Transfection Reagent (Roche, Cat. No. 11814 443 001).
Transfection Procedure: The FuGENE transfection 6 reagent (45 uL) was added to 1410 μL of media (DMEM, serum free without pen/strep) in a 15 mL conical tube and incubated at room temp for 5 minutes, followed by the addition of FAAH plasmid DNA (15 μg) (OriGene Cat. No. TC119221, Genbank Accession No. NM_001441.1, 0.67 ug/uL) and a further incubation of 15 minutes at room temperature. The resulting solution was added into one dish of 30-40% confluent COS-7 cells in a drop-wise manner. The COS-7 cell dish was subsequently incubated for 48 hours. The cells are then harvested.
Harvest procedure: Media was aspirated from the dishes and the cells rinsed with 10 mL PBS. The PBS was removed and 3 mL of PBS added to the dish. The dish was scraped to resuspend the cells, and the subsequent cell suspension collected into a 15 mL conical tube. The cells were pelleted by centrifugation at 1200 rpm for 5 minutes in a bench top centrifuge. PBS was removed and the cell pellet snap frozen in liquid nitrogen and stored at −80° C.
COS-7 cells —FAAH purification: • (1) Fractionation: Frozen cell pellets from transient transfections were thawed on ice and resuspended in 12.5 mM Hepes pH 8.0, 100 mM NaCl, 1 mM EDTA (10 mL/0.2 g cell pellet). The pellets were dounce homogenized and then sonicated to produce cell extract. The cell extract was subsequently centrifuged at 1000 g to remove cellular debris. The pellet was discarded and the supernatant centrifuged at 13,000 g for 20 minutes. The pellet contained membrane bound FAAH. The supernatant was discarded and the pellet resolubilized. • (2) Re-solubilization: The fraction of interest, (13,000 g, membrane fraction) was re-suspended in 2.3 mL re-suspension buffer (20 mM Hepes pH 7.8, 10% v/v Glycerol, 1 mM EDTA, 1% Triton X-100) and the sample incubated on ice for 1 hour and then centrifuged to remove any particulate matter. The supernatant containing solubilized human FAAH was aliquoted and snap frozen in liquid nitrogen and stored at −80° C. until use. • (3) Characterization: Protein Concentration determined by Bradford assay. • SDS gel and Western blot to confirm presence of FAAH • FAAH activity assay • Km determination-96-well assay • Linear dependence—96-well assay • Standard compound Ki determination—384-well assay
Human FAAH assay; Experimental Protocol: A 0.1 mg/mL Human FAAH solution was made up in FAAH reaction buffer, and 24 ul pipeted into a 384 well plate. To this was added 1 μL of a 3 fold serially diluted inhibitor from a DMSO stock solution. The FAAH solution and inhibitor were incubated for 30 minutes at room temperature. The FAAH reaction was initiated by the addition of 25 μL of 40 μM AMC Arachidonoyl Amide in FAAH reaction buffer, yielding a final reaction human FAAH preparation concentration of 0.05 mg/ml and AMC-Arachidonoyl substrate concentration of 20 μM, reaction volume 50 μL. The reaction was allowed to proceed for 4 hours at room temperature. The reaction was stopped by the addition of 25 μL 12 μM a-ketoheterocycle (Cayman Chemicals, catalogue #10435). The microtiter plate was read in the envision plate reader.
The raw fluorescence was plotted on the y axis and the inhibitor concentration on the x axis to give a dose response inhibition curve. The data was fitted to a single site competitive inhibition equation, fixing the Km for the human enzyme to 12 μM and 9 μM respectively.
Work on `Cc1nnc(-c2ccc(OC3=NOC(c4ccc(Oc5ccccc5)cc4)C3)cc2)o1` (racemic) [I-159] yielded a Ki of at most 100 nM.
`CC1(c2ccc(Oc3ccccc3)cc2)CC(Oc2cccnc2)=NO1` (racemic) [I-89] showed a Ki of at most 100 nM.
For `CCC1(c2ccc(Oc3ccccc3)cc2)CC(Br)=NO1` (racemic) [I-95], the Ki was at most 100 nM.
With `Cn1ccc2cc(OC3=NOC(c4ccc(Oc5ccccc5)cc4)C3)cnc21` (single isomer, unassigned) [I-44] the Ki was 100 to 1000 nM.
For `FC(F)(F)Oc1ccc(C2CC(Oc3cncnc3)=NO2)cc1Cl` (racemic) [I-125], the Ki was at most 100 nM.
`CC1(c2ccc(OC(F)(F)F)cc2)CC(Oc2ccc(S(C)(=O)=O)cc2)=NO1` (racemic) [I-234] showed a Ki of 100 to 1000 nM.
For `BrC1=NO[C@@H](c2ccc(Br)cc2)C1` (racemic) [I-148], the Ki was at most 100 nM.
`[O-][S+](C1=NOC(c2ccc(OC(F)(F)F)cc2)C1)c1ccccc1` (racemic) [I-249] showed a Ki of at least 1000 nM.
Compound `Fc1cc([C@H]2CC(Br)=NO2)ccc1OC(F)(F)F` (racemic) [I-120] has a Ki of at most 100 nM.
`BrC1=NOC(c2ccc(Oc3ncccn3)cc2)C1` (single isomer, unassigned) [I-13] showed a Ki of at most 100 nM.
Compound `O=C(O)c1ccc(OC2=NOC(c3ccc(Oc4ccccc4)cc3)C2)cn1` (racemic) [I-110] has a Ki of at most 100 nM.
Compound `Cc1nnc(-c2cncc(OC3=NOC(C)(c4ccc(OC(F)(F)F)cc4)C3)c2)o1` (racemic) [I-229] has a Ki of at most 100 nM.
With `FC(F)(F)Oc1ccc(C2CC(Oc3ccc(-c4ccccc4)nc3)=NO2)cc1` (racemic) [I-86] the Ki was 100 to 1000 nM.
For `CCNC(=O)c1ccc(OC2=NOC(C)(c3ccc(OC(F)(F)F)cc3)C2)cn1` (racemic) [I-115], the Ki was at most 100 nM.
In the case of `CSc1ccc(OC2=NOC(c3ccc(OC(F)(F)F)cc3)C2)cn1` (racemic) [I-134], the Ki is reported as at most 100 nM.
`COC(=O)c1ccc(OC2=NOC(c3ccc(Oc4ccccc4)cc3)C2)cc1` (racemic) [I-62] gave a Ki of at most 100 nM.
Compound `FC(F)(F)Oc1ccc([C@H]2CC(Br)=NO2)cc1Cl` (racemic) [I-124] has a Ki of at most 100 nM.
Compound `FC(F)(F)Oc1ccc(C2CC(Oc3cccnc3)=NO2)cc1` (racemic) [I-70] has a Ki of at most 100 nM.
`COC(=O)c1ccc(OC2=NOC(c3ccc(OC(F)(F)F)cc3)C2)cn1` (racemic) [I-96] showed a Ki of at most 100 nM.
`c1ccc(Oc2ccc(C3CC(n4cccn4)=NO3)cc2)cc1` (single isomer, unassigned) [I-35] gave a Ki of at least 1000 nM.
For `FC1(F)Oc2ccc([C@H]3CC(Oc4cncnc4)=NO3)cc2O1` (racemic) [I-127], the Ki was 100 to 1000 nM.
For `O=S(=O)(c1ccc([C@H]2CC(Br)=NO2)cc1)N1CCCCC1` (racemic) [I-210], the Ki was at most 100 nM.
In the case of `CC1(c2ccc(OC(F)(F)F)cc2)CC(Oc2cncnc2)=NO1` (racemic) [I-129], the Ki is reported as at most 100 nM.
`CS(=O)(=O)c1ccc(OC2=NO[C@@H](c3ccc(C(=O)NCc4ccccc4)cc3)C2)cn1` (racemic) [I-214] showed a Ki of at most 100 nM.
`O=C(O)c1ccc(-c2ccc(OC3=NOC(c4ccc(OC(F)(F)F)cc4)C3)cn2)o1` (racemic) [I-188] showed a Ki of at least 1000 nM.
Work on `CCOC(=O)c1cccc(-c2ccc(OC3=NOC(c4ccc(OC(F)(F)F)cc4)C3)cn2)c1` (racemic) [I-84] yielded a Ki of 100 to 1000 nM.
`O=C(O)CCc1ccc(OC2=NOC(c3ccc(OC(F)(F)F)cc3)C2)cn1` (racemic) [I-128] was tested, and the Ki was at most 100 nM.
Compound `CC1(c2ccc(OC(F)(F)F)cc2)CC(Oc2ccc(-n3cccn3)nc2)=NO1` (racemic) [I-198] has a Ki of at most 100 nM.
With `O=S(=O)(c1ccc(OC2=NOC(c3ccc(OC(F)(F)F)cc3)C2)cn1)C1CCCC1` (racemic) [I-183] the Ki was 100 to 1000 nM.
For `COc1ccc([C@@H]2ON=C(Br)[C@H]2C)cc1` (racemic) [I-77], the Ki was at least 1000 nM.
`CC1(c2ccc(OC(F)(F)F)cc2)CC(Oc2cncc(-c3nnco3)c2)=NO1` (racemic) [I-228] was tested, and the Ki was at most 100 nM.
`CS(=O)(=O)c1ncc(OC2=NOC(c3ccc(OC(F)(F)F)cc3)C2)cn1` (racemic) [I-133] showed a Ki of at most 100 nM.
Work on `C[C@@H]1C(Oc2cccnc2)=NO[C@H]1c1ccc(Oc2ccccc2)cc1` (racemic) [I-91] yielded a Ki of at least 1000 nM.
`CNC(=O)c1ccc(OC2=NOC(c3ccc(OC(F)(F)F)cc3)C2)cn1` (racemic) [I-107] was tested, and the Ki was at most 100 nM.
In the case of `COC(=O)c1cc(OC2=NOC(c3ccc(OC(F)(F)F)cc3)C2)ccn1` (racemic) [I-151], the Ki is reported as at most 100 nM.
`O=C(NCCO)c1ccc(OC2=NOC(c3ccc(OC(F)(F)F)cc3)C2)cn1` (racemic) [I-109] showed a Ki of at most 100 nM.
Compound `c1ccc(Oc2ccc(C3CC(Oc4cnc5ccccc5c4)=NO3)cc2)cc1` (single isomer, unassigned) [I-42] has a Ki of at most 100 nM.
With `Cc1nnc(-c2cccc(OC3=NOC(C)(c4ccc(OC(F)(F)F)cc4)C3)c2)o1` (racemic) [I-222] the Ki was at most 100 nM.
`O=C(c1ccc([C@H]2CC(Br)=NO2)cc1)N1CCOCC1` (racemic) [I-202] gave a Ki of 100 to 1000 nM.
With `O=C(O)c1cccc(-c2ccc(OC3=NOC(c4ccc(OC(F)(F)F)cc4)C3)cn2)c1` (racemic) [I-85] the Ki was 100 to 1000 nM.
`c1ccc(Oc2ccc(C3CC(Oc4cnc5cc[nH]c5c4)=NO3)cc2)cc1` (racemic) [I-57] showed a Ki of at most 100 nM.
`Cn1cc(-c2ccc(OC3=NOC(C)(c4ccc(OC(F)(F)F)cc4)C3)cn2)cn1` (racemic) [I-240] was tested, and the Ki was at most 100 nM.
`COC(=O)c1ccc(OC2=NO[C@@H](c3ccc(OC(F)(F)F)c(F)c3)C2)cn1` (racemic) [I-122] gave a Ki of at most 100 nM.
With `BrC1=NOC(c2cccc(Oc3ccccc3)c2)C1` (single isomer, unassigned) [I-11] the Ki was at most 100 nM.
Compound `CC(C)Oc1ccc([C@H]2CC(Oc3cncnc3)=NO2)cc1` (racemic) [I-141] has a Ki of at most 100 nM.
With `N#Cc1cccc(OC2=NOC(c3ccc(Oc4ccccc4)cc3)C2)c1` (racemic) [I-58] the Ki was 100 to 1000 nM.
`Cc1ccc(-c2ccc(OC3=NOC(c4ccc(OC(F)(F)F)cc4)C3)cn2)o1` (racemic) [I-187] gave a Ki of at most 100 nM.
`FC(F)(F)c1ccc(C2CC(Oc3cccc(-c4nnco4)c3)=NO2)cc1` (racemic) [I-217] was tested, and the Ki was at most 100 nM.
`CC1C(Br)=NOC1c1ccc(Oc2ccccc2)cc1` (stereo not shown) [I-78] was tested, and the Ki was at most 100 nM.
`COc1cncc(OC2=NOC(c3ccc(Oc4ccccc4)cc3)C2)c1` (racemic) [I-65] gave a Ki of at most 100 nM.
Work on `O=C(O)CCc1ccc(OC2=NOC(c3ccc(Oc4ccccc4)cc3)C2)cn1` (racemic) [I-99] yielded a Ki of at most 100 nM.
With `Cn1nccc1-c1ccc(OC2=NOC(C)(c3ccc(OC(F)(F)F)cc3)C2)cn1` (racemic) [I-241] the Ki was at most 100 nM.
With `N#Cc1ccc(OC2=NOC(c3ccc(Oc4ccccc4)cc3)C2)cc1` (single isomer, unassigned) [I-27] the Ki was at most 100 nM.
`CC1(c2ccc(OC(F)(F)F)cc2)CC(Oc2ccc(C(=O)NCC(F)(F)F)nc2)=NO1` (racemic) [I-116] showed a Ki of 100 to 1000 nM.
For `CC1(c2ccc(OC(F)(F)F)cc2)CC(Oc2cc3ccccn3n2)=NO1` (racemic) [I-172], the Ki was at least 1000 nM.
